Experiments:
[1] = target: T1, RAB1 (RabO) (Aspergillus nidulans, UniProt C8V3Z5); experiment: GDP/mant-GDP exchange, Trp-to-mant FRET ([…] nm), exponential fit; type: binding; settings: 5 uM GDP-loaded GST-RAB1, 50 uM mant-GDP, 10 mM MgCl2, 10 mM KCl, 2 mM DTT, 50 mM Tris-HCl pH 7.5, 30 C; no GEF
T1 construct: gene ANIA_04281; GST fusion, expressed in E. coli, purified on glutathione-Sepharose 4B, GDP-loaded; GST not reported cut

[2] = target: TRAPPII from tca17Δ cells (Aspergillus nidulans); experiment: negative-stain electron microscopy; Trs120-S-purified complexes eluted from S-agarose with S-peptide, concentrated, stained with 2% uranyl acetate; single particle 2D classification

T1 sequence (C8V3Z5 entry or part of it): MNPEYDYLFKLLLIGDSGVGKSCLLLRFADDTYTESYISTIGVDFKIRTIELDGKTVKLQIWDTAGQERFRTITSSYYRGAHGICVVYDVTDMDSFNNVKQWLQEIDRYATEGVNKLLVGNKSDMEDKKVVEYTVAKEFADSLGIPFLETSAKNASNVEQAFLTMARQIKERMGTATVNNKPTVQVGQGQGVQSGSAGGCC

| Molecule | koff [1] | percent of particles that are TRAPPII dimers [2] |
| --- | --- | --- |
| Nc1nc2c(ncn2[C@@H]2O[C@H](COP(=O)(O)OP(=O)(O)O)[C@@H](O)[C@H]2O)c(=O)[nH]1 [GDP] | Time courses of mant-GDP exchange for GDP were used to calculate the observed koff of GDP |  |
| TRAPPII from tca17Δ cells (complex) |  | 12% |

From PMC6946167, “Characterization of Aspergillus nidulans TRAPPs uncovers unprecedented similarities between fungi and metazoans and reveals the modular assembly of TRAPPII” (PLoS Genetics, 2019)
